Values after ≈ are worked out from the molar mass of the structure shown.
Experiments:
[1] = Ratio of drug concentration in spinal cord to plasma of overnight fasted Sprague-Dawley rat model with streptozotocin induced diabetic peripheral neuropathic mechanical allodynia at 3 mg/kg, po measured at 5.5 hrs post dose; format: ADME, organism-based
[2] = Solubility of the compound in FeSSIF; format: physicochemical
[3] = target: Cyclin-G-associated kinase (Homo sapiens, UniProt O14976); assay: Inhibition of GAK (unknown origin)
Cytochrome P450 = Cytochrome P450 (Homo sapiens, UniProt P04798+P05177+P05181+P08684+P10632+P10635+P11509+P11712+P13584+P20813+P20815+P20853+P24462+P24903+P33260+P33261+P51589+P78329+P98187+Q02928+Q08477+Q16678+Q16696+Q5TCH4+Q6VVX0+Q7Z449+Q8TAV3+Q96SQ9+Q9HB55); assay: Metabolic stability in human liver microsomes assessed as CYP450-mediated metabolism by measuring parent compound remaining at 0.5 uM incubated for 10 mins in presence of NADPH by LC-MS/MS analysis; format: ADME; details: read-out: Stability
[4] = target: Solute carrier organic anion transporter family member 1B1 (Homo sapiens, UniProt Q9Y6L6); assay: Inhibition of OATP1B1 (unknown origin)
Sequence of Solute carrier organic anion transporter family member 1B1 (Q9Y6L6 whole entry): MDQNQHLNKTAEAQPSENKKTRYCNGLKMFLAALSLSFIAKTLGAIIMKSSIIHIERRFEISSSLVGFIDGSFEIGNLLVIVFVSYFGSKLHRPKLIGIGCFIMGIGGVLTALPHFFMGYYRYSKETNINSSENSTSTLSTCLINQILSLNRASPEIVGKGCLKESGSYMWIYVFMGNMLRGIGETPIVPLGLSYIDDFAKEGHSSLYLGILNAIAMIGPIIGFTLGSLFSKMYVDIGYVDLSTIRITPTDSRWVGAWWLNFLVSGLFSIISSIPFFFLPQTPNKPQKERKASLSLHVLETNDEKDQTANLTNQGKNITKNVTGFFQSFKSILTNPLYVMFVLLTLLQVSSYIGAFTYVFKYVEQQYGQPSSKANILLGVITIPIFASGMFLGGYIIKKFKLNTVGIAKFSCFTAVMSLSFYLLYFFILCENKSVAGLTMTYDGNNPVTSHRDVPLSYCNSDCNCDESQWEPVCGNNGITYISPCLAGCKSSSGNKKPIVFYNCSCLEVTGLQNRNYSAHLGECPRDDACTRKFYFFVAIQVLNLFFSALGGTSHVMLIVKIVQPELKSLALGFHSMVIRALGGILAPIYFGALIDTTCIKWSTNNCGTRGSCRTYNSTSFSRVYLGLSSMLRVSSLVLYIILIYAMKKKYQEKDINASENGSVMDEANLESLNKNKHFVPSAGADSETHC

[5] = Protein binding in cynomolgus monkey plasma assessed as unbound fraction at 10 uM incubated for 5 hrs by LC-MS/MS analysis; format: ADME, cell-free, Macaca fascicularis
[6] = Cmax in monkey at 3 mg/kg, po; format: ADME, organism-based, Macaca mulatta; design: route oral, dose 3 mg/kg; details: rhesus monkey, in vivo
[7] = Protein binding in rat plasma assessed as unbound fraction at 10 uM measured after 5 hrs by LC-MS/MS analysis; format: ADME, cell-free
[8] = Clearance in dog at 2 mg/kg, iv; format: ADME, organism-based, Canis lupus familiaris; details: in vivo
[9] = Protein binding in mouse plasma assessed as unbound fraction at 10 uM measured after 5 hrs by LC-MS/MS analysis; format: ADME, cell-free
[10] = Metabolic stability in mouse liver microsomes assessed as half life; format: ADME, Microsome
Rattus norvegicus [11] = assay: Analgesic activity in streptozotocin induced diabetic peripheral neuropathic mechanical allodynia in overnight fasted Sprague-Dawley rat model assessed as efficacy at 3 mg/kg, po measured at 5.5 hrs post dose; format: functional
[12] = Ratio of drug concentration in spinal cord to plasma of overnight fasted Sprague-Dawley rat model with streptozotocin induced diabetic peripheral neuropathic mechanical allodynia at 0.1 mg/kg, po measured at 5.5 hrs post dose; format: ADME, organism-based
[13] = MRT in monkey at 2 mg/kg, iv; format: ADME, organism-based, Macaca mulatta; details: rhesus monkey, in vivo
[14] = Drug concentration in overnight fasted Sprague-Dawley rat spinal cord with streptozotocin induced diabetic peripheral neuropathic mechanical allodynia at 3 mg/kg, po measured at 5.5 hrs post dose; format: ADME, organism-based; details: read-out: Ct
[15] = target: Solute carrier organic anion transporter family member 1B3 (Homo sapiens, UniProt Q9NPD5); assay: Inhibition of OATP1B3 (unknown origin)
Sequence of Solute carrier organic anion transporter family member 1B3 (Q9NPD5 whole entry): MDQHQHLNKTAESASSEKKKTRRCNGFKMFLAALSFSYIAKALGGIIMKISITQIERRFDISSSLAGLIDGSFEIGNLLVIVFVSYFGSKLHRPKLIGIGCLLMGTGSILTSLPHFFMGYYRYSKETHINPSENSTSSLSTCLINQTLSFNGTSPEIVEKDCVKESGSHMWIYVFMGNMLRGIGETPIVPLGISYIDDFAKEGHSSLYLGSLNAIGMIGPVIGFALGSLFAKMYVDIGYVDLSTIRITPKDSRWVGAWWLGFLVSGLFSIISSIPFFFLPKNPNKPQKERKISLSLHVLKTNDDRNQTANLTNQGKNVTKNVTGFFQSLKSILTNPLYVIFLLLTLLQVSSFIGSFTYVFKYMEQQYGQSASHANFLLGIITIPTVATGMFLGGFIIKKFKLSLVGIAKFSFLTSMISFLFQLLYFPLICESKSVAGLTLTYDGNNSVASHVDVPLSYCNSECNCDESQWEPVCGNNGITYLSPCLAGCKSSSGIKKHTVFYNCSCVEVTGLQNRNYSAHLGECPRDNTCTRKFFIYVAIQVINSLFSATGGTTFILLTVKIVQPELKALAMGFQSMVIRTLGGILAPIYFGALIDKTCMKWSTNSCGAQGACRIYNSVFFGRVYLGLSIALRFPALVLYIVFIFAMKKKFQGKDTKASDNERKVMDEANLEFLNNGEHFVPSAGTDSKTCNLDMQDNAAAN

[16] = Cmax in overnight fasted Sprague-Dawley rat plasma with streptozotocin induced diabetic peripheral neuropathic mechanical allodynia at 1 mg/kg, po measured at 5.5 hrs post dose; format: ADME, organism-based; design: route oral, time 5.5 hrs, dose 1 mg/kg
Cytochrome P450 2C9 = Cytochrome P450 2C9 (Homo sapiens, UniProt P11712); assay: Inhibition of CYP2C9 (unknown origin); format: ADME
Sequence of Cytochrome P450 2C9 (P11712 whole entry): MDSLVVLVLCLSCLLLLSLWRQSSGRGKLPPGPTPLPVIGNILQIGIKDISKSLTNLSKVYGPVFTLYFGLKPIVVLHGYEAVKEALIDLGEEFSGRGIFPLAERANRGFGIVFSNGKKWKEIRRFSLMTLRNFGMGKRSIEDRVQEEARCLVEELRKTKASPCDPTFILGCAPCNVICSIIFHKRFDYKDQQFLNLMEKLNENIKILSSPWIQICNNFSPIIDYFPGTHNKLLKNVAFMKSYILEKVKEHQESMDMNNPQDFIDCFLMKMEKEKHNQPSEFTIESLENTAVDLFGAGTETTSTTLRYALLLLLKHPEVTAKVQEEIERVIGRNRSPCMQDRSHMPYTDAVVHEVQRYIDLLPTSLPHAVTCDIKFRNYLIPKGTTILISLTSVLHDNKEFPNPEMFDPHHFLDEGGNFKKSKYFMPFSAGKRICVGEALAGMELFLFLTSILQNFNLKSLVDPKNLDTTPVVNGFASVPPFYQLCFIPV

[17] = Solubility of the compound in FaSSIF; format: physicochemical
[18] = target: ATP-binding cassette sub-family C member 2 (Homo sapiens, UniProt Q92887); assay: Inhibition of MRP2 (unknown origin)
Sequence of ATP-binding cassette sub-family C member 2 (Q92887 whole entry): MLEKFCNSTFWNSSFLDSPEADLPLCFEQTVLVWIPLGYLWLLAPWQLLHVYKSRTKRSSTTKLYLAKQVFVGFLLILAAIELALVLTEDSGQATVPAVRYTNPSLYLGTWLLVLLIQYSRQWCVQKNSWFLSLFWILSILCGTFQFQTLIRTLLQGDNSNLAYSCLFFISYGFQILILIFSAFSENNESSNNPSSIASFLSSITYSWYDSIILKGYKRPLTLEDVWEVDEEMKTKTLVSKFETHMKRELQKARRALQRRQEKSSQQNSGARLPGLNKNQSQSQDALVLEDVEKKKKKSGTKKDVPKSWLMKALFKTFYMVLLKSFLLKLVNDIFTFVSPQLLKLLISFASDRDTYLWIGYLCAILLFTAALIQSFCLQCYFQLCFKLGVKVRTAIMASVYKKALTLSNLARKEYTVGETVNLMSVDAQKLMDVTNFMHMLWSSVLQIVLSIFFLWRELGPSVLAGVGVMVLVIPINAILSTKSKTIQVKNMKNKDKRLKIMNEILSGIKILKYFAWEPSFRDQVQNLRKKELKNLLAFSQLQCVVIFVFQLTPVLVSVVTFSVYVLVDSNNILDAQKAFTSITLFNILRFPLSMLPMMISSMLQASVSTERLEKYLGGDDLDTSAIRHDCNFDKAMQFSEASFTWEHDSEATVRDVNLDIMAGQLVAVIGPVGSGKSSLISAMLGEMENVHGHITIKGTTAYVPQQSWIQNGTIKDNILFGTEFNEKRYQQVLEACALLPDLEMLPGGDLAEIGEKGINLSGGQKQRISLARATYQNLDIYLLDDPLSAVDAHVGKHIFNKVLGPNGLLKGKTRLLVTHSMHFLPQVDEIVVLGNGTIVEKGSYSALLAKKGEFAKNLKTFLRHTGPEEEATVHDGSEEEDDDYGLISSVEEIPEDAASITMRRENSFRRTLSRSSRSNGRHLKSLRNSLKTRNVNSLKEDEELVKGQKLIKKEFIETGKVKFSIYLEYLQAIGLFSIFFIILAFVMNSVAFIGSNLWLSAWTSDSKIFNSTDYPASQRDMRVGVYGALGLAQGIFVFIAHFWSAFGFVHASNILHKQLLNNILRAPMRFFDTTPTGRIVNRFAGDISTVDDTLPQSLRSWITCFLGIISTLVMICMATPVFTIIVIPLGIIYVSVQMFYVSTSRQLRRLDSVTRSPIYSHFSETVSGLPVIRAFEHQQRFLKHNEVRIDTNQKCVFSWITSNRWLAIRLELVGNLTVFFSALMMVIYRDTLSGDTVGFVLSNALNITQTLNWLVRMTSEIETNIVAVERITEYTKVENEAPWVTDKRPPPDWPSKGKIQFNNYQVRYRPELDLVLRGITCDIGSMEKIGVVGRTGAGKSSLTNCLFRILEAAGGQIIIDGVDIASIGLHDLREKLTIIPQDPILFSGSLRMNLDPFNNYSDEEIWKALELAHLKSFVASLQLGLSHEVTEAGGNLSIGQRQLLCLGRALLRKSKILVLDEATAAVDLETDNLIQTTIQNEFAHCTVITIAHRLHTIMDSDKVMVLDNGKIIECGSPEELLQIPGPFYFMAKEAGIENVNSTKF

[19] = Cmax in overnight fasted Sprague-Dawley rat plasma with streptozotocin induced diabetic peripheral neuropathic mechanical allodynia at 0.3 mg/kg, po measured at 5.5 hrs post dose; format: ADME, organism-based; design: route oral, time 5.5 hrs, dose 0.3 mg/kg
Aorta = assay: Cardiotoxicity in rat aortic ring assessed as relaxation of phenylephrine induced aortic ring contraction at 10 uM incubated for 1 hr; format: toxicity, tissue-based; design: scale not given: the % may be the effect or the level left
[20] = MRT in rat at 2 mg/kg, iv; format: ADME, organism-based; details: in vivo
[21] = target: Serine/threonine-protein kinase LATS2 (Homo sapiens, UniProt Q9NRM7); assay: Inhibition of LATS2 (unknown origin)
Rattus norvegicus [22] = assay: Analgesic activity in streptozotocin induced diabetic peripheral neuropathic mechanical allodynia in overnight fasted Sprague-Dawley rat model assessed as reduction in pain response at 3 mg/kg, po measured after 5.5 hrs post treatment; format: functional; design: scale not given: the % may be the effect or the level left
[23] = Drug concentration in naive Sprague-Dawley rat spinal cord at 3 mg/kg, po measured at 5.25 hrs post dose; format: ADME, organism-based; details: read-out: Ct
Rattus norvegicus [24] = assay: Analgesic activity in CCI induced thermal hyperalgesia in Sprague-Dawley rat assessed as reversal of thermal hyperalgesia by measuring reduction in paw withdrawal latency at 0.3 mg/kg, po measured after 5.5 hrs by Hargreaves test relative to control; format: functional; design: scale not given: the % may be the effect or the level left
[25] = Drug uptake in Spinal cord of CCI induced thermal hyperalgesia Sprague-Dawley rat model assessed as spinal occupancy at 0.1 mg/kg, po measured at 5.75 hrs post dose in presence of [3H]BMT-046091; format: ADME, organism-based; details: in vivo
[26] = Oral bioavailability in mouse at 3 mg/kg; format: ADME, organism-based; details: in vivo
[27] = Protein binding in dog plasma assessed as unbound fraction at 10 uM incubated for 5 hrs by LC-MS/MS analysis; format: ADME, cell-free, Canis lupus familiaris
[28] = Drug concentration in Sprague-Dawley rat spinal cord with CCI induced thermal hyperalgesia at 0.1 mg/kg, po measured at 5.75 hrs post dose; format: ADME, organism-based; details: read-out: Ct
[29] = Tmax in mouse at 3 mg/kg, po; format: ADME, organism-based; details: in vivo
[30] = target: Voltage-gated inwardly rectifying potassium channel KCNH2 (Homo sapiens, UniProt Q12809); assay: Inhibition of human ERG by patch clamp assay; format: toxicity
Sequence of Voltage-gated inwardly rectifying potassium channel KCNH2 (Q12809 whole entry): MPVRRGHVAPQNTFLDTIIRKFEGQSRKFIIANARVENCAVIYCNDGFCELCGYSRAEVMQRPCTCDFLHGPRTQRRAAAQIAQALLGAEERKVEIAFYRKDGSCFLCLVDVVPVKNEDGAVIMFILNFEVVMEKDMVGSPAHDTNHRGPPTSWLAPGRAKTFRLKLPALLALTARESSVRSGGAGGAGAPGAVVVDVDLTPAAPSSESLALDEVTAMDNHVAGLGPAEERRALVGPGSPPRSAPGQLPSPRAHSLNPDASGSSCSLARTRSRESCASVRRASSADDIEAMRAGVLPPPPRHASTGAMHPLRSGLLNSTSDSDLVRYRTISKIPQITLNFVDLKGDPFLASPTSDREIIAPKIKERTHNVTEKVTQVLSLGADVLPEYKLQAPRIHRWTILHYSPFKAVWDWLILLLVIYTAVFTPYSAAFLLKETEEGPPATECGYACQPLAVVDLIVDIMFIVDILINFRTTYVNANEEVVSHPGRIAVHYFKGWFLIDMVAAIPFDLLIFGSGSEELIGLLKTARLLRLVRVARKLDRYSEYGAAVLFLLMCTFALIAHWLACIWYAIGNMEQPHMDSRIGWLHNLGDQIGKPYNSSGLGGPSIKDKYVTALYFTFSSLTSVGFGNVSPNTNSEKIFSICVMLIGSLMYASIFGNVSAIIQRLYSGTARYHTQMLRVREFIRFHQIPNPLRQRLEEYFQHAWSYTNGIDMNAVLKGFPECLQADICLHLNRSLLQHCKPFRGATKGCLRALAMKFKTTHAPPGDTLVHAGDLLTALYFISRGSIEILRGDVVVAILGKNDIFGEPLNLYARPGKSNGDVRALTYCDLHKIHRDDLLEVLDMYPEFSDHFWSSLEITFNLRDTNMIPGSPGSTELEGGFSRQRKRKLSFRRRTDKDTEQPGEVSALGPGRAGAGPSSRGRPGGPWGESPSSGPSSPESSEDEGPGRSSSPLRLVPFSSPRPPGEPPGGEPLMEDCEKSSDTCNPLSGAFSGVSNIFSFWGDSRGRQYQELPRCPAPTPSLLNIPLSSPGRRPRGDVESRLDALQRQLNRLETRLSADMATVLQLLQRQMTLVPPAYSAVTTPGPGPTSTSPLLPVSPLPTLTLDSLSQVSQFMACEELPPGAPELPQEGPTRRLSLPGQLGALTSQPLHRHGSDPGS

Cytochrome P450 2C19 = Cytochrome P450 2C19 (Homo sapiens, UniProt P33261); assay: Inhibition of CYP2C19 (unknown origin); format: ADME
[31] = Volume of distribution at steady state in dog at 2 mg/kg, iv; format: ADME, organism-based, Canis lupus familiaris; details: in vivo, read-out: Vdss
[32] = Volume of distribution at steady state in mouse at 2 mg/kg, iv; format: ADME, organism-based; details: in vivo, read-out: Vdss
Cytochrome P450 1A2 = Cytochrome P450 1A2 (Homo sapiens, UniProt P05177); assay: Inhibition of CYP1A2 (unknown origin); format: ADME
Sequence of Cytochrome P450 1A2 (P05177 whole entry): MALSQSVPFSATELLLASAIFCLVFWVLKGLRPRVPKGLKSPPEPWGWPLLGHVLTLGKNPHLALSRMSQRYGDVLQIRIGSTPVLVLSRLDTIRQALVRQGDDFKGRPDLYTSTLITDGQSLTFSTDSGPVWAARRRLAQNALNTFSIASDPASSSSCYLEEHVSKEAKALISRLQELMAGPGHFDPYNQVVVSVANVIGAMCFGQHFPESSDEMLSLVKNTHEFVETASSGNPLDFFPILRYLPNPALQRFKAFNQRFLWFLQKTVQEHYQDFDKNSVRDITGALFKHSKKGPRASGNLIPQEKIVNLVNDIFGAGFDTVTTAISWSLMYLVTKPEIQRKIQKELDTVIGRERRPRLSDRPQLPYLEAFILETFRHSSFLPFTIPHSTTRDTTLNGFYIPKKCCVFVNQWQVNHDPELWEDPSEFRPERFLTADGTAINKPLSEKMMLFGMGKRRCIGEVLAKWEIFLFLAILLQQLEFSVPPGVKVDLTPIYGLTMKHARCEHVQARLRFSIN

[33] = Tmax in dog at 3 mg/kg, po; format: ADME, organism-based, Canis lupus familiaris; details: in vivo
[34] = Clearance in monkey at 2 mg/kg, iv; format: ADME, organism-based, Macaca mulatta; details: rhesus monkey, in vivo
[35] = Solubility of the compound at pH 6.5 using crystalline form of sample; format: physicochemical
[36] = Solubility of the compound in citrate at pH 4.4 using crystalline form of sample; format: physicochemical
[37] = Drug concentration in Sprague-Dawley rat spinal cord with CCI induced thermal hyperalgesia at 1 mg/kg, po measured at 5.75 hrs post dose; format: ADME, organism-based; details: read-out: Ct
[38] = Apparent elimination half life in mouse at 2 mg/kg, iv; format: ADME, organism-based; details: in vivo, read-out: betat1/2(app) (converted)
[39] = AUC (infinity) in mouse at 2 mg/kg, iv; format: ADME, organism-based; design: time infinity, route intravenous, dose 2 mg/kg; details: in vivo
[40] = Cmax in rat at 3 mg/kg, po; format: ADME, organism-based; design: route oral, dose 3 mg/kg; details: in vivo
[41] = Cmax in Sprague-Dawley rat plasma with CCI induced thermal hyperalgesia at 0.1 mg/kg, po measured at 5.75 hrs post dose; format: ADME, organism-based; design: route oral, dose 0.1 mg/kg, time 5.75 hrs
[42] = Permeability of compound at pH 5.5 measured after 4 hrs by PAMPA assay; format: ADME; details: read-out: permeability

Kp at 5.5 h [1]: 7
solubility [2]: 840 µg/mL (≈ 2180 µM)
IC50 [3]: 0.8 µM
remaining at 10 min, 0.5 µM (Cytochrome P450): 87%
IC50 [4]: > 30 µM
fraction unbound at 5 h, 10 µM [5]: 0.053
Cmax [6]: 20 ng/mL
fraction unbound at 5 h, 10 µM [7]: 0.1
clearance [8]: 28.5 mL/min/kg
fraction unbound at 5 h, 10 µM [9]: 0.046
half-life [10]: > 2 h
Kp at 5.5 h [12]: 13
MRT [13]: 8.5 h
concentration at 5.5 h [14]: 2370 nM
IC50 [15]: > 30 µM
Cmax [16]: 92 nM
IC50 (Cytochrome P450 2C9): > 20 µM
solubility [17]: 700 µg/mL (≈ 1820 µM)
IC50 [18]: > 30 µM
Cmax [19]: 25 nM
MRT [20]: 11.6 h
IC50 [21]: 0.66 µM
concentration at 5.25 h [23]: 3860 nM
Occ [25]: 37%
bioavailability [26]: 100%
fraction unbound at 5 h, 10 µM [27]: 0.04
concentration at 5.75 h [28]: 214 nM
Tmax [29]: 5 h
IC50 (Cytochrome P450 2C19): > 20 µM
Vd [31]: 11.8 L/kg
Vd [32]: 19 L/kg
IC50 (Cytochrome P450 1A2): > 20 µM
Tmax [33]: 1.3 h
clearance [34]: 41.2 mL/min/kg
solubility thermodynamic [35]: 440 µg/mL (≈ 1140 µM)
solubility [36]: 1400 µg/mL (≈ 3630 µM)
concentration at 5.75 h [37]: 1220 nM
half-life [38]: 44.2 h
AUC(0-inf) [39]: 6710 ng·h/mL
Cmax [40]: 60 ng/mL
Cmax [41]: 5 nM
Papp at 4 h [42]: 60 ×10⁻⁶ cm/s
SMILES: CC(C)C[C@](C)(N)COc1ccc(-c2ccnc(C(F)F)c2)nc1C(F)F [PILAVAPADIN]
Efficacy (Rattus norvegicus [11]): 63%
Activity (Aorta): 42%
Activity (Rattus norvegicus [22]): 60%
Activity (Rattus norvegicus [24]): 25%
IC50 [30]: 1.4 µM

Reference: ChEMBL document CHEMBL5046296 (J Med Chem, 2022)
